# Laboratory results: the supplement of paper PMC10307832
# Columns and labels:
# Assay in all cases: relative viability (nuclei count vs DMSO), 5 days (fraction); higher = more cells survive
# 201T = test system: 201T
# Method in brief: (§1)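 Lung cancer cell lines were seeded in 1536-well plates and dosed by pin tool the next day, with either a single drug or a fixed anchor-drug dose combined with five library-drug doses (not always all listed) spaced in √10 steps. Five days later, one step fixed the cells and stained their nuclei (final 0.05% Triton X-100, 1% formaldehyde, 1 ug/ml Hoechst), and nuclei were counted on 4× images. Relative viability is the nuclei count in treated wells divided by the count in vehicle wells, and each value is the median of duplicate plates.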
# BEN = test system: BEN
# Method in brief: as §1
# CAL-12T = test system: CAL-12T
# Method in brief: as §1
# HCC-78 = test system: HCC-78
# Method in brief: as §1
# HOP-62 = test system: HOP-62
# Method in brief: as §1
# LCLC-97TM1 = test system: LCLC-97TM1
# Method in brief: as §1
# LOU-NH91 = test system: LOU-NH91
# Method in brief: as §1
# NCI-H1355 = test system: NCI-H1355
# Method in brief: as §1
# NCI-H1395 = test system: NCI-H1395
# Method in brief: as §1
# NCI-H1563 = test system: NCI-H1563
# Method in brief: as §1
# NCI-H1651 = test system: NCI-H1651
# Method in brief: as §1
# NCI-H1793 = test system: NCI-H1793
# Method in brief: as §1
# NCI-H1915 = test system: NCI-H1915
# Method in brief: as §1
# NCI-H1944 = test system: NCI-H1944
# Method in brief: as §1
# NCI-H2126 = test system: NCI-H2126
# Method in brief: as §1
# NCI-H2347 = test system: NCI-H2347
# Method in brief: as §1
# NCI-H3122 = test system: NCI-H3122
# Method in brief: as §1
# NCI-H322M = test system: NCI-H322M
# Method in brief: as §1
# NCI-H441 = test system: NCI-H441
# Method in brief: as §1
# NCI-H650 = test system: NCI-H650
# Method in brief: as §1
# NCI-H838 = test system: NCI-H838
# Method in brief: as §1
# SK-LU-1 = test system: SK-LU-1
# Method in brief: as §1
# SW 1573 = test system: SW 1573
# Method in brief: as §1
compound,measurement,setting,value
CCNC(=O)c1noc(-c2cc(C(C)C)c(O)cc2O)c1-c1ccc(CN2CCOCC2)cc1 [Luminespib] + Cc1nc(NC(=O)N2CCC[C@H]2C(N)=O)sc1-c1ccnc(C(C)(C)C(F)(F)F)c1 [Alpelisib] (partner 2 µM),relative viability,201T; first compound 0.002 µM,0.965
same,relative viability,201T; first compound 0.006325 µM,1.01
same,relative viability,201T; first compound 0.02 µM,0.96
same,relative viability,201T; first compound 0.06325 µM,1.04
same,relative viability,201T; first compound 0.2 µM,1.03
same,relative viability,BEN; first compound 0.002 µM,1.1
same,relative viability,BEN; first compound 0.006325 µM,0.964
same,relative viability,BEN; first compound 0.02 µM,0.393
same,relative viability,BEN; first compound 0.06325 µM,0.709
same,relative viability,BEN; first compound 0.2 µM,0.224
same,relative viability,CAL-12T; first compound 0.002 µM,1.21
same,relative viability,CAL-12T; first compound 0.006325 µM,1.25
same,relative viability,CAL-12T; first compound 0.02 µM,1.02
same,relative viability,CAL-12T; first compound 0.06325 µM,0.192
same,relative viability,CAL-12T; first compound 0.2 µM,0.0844
same,relative viability,HCC-78; first compound 0.002 µM,0.309
same,relative viability,HCC-78; first compound 0.06325 µM,0.585
same,relative viability,HCC-78; first compound 0.2 µM,0.216
same,relative viability,HOP-62; first compound 0.002 µM,1.17
same,relative viability,HOP-62; first compound 0.006325 µM,0.79
same,relative viability,HOP-62; first compound 0.02 µM,0.603
same,relative viability,HOP-62; first compound 0.06325 µM,0.788
same,relative viability,HOP-62; first compound 0.2 µM,0.927
same,relative viability,LCLC-97TM1; first compound 0.002 µM,0.286
same,relative viability,LCLC-97TM1; first compound 0.006325 µM,0.254
same,relative viability,LCLC-97TM1; first compound 0.02 µM,0.19
same,relative viability,LCLC-97TM1; first compound 0.06325 µM,0.323
same,relative viability,LCLC-97TM1; first compound 0.2 µM,0.194
same,relative viability,LOU-NH91; first compound 0.002 µM,0.717
same,relative viability,LOU-NH91; first compound 0.006325 µM,0.646
same,relative viability,LOU-NH91; first compound 0.02 µM,0.543
same,relative viability,LOU-NH91; first compound 0.06325 µM,0.43
same,relative viability,LOU-NH91; first compound 0.2 µM,0.381
same,relative viability,NCI-H1355; first compound 0.002 µM,0.915
same,relative viability,NCI-H1355; first compound 0.006325 µM,0.913
same,relative viability,NCI-H1355; first compound 0.02 µM,0.403
same,relative viability,NCI-H1355; first compound 0.06325 µM,0.903
same,relative viability,NCI-H1355; first compound 0.2 µM,0.594
same,relative viability,NCI-H1395; first compound 0.002 µM,1.37
same,relative viability,NCI-H1395; first compound 0.006325 µM,1.03
same,relative viability,NCI-H1395; first compound 0.02 µM,1.17
same,relative viability,NCI-H1395; first compound 0.06325 µM,0.469
same,relative viability,NCI-H1395; first compound 0.2 µM,0.349
same,relative viability,NCI-H1563; first compound 0.002 µM,0.877
same,relative viability,NCI-H1563; first compound 0.006325 µM,0.942
same,relative viability,NCI-H1563; first compound 0.02 µM,0.95
same,relative viability,NCI-H1563; first compound 0.06325 µM,0.495
same,relative viability,NCI-H1563; first compound 0.2 µM,0.537
same,relative viability,NCI-H1651; first compound 0.002 µM,0.899
same,relative viability,NCI-H1651; first compound 0.006325 µM,0.854
same,relative viability,NCI-H1651; first compound 0.02 µM,0.881
same,relative viability,NCI-H1651; first compound 0.06325 µM,0.42
same,relative viability,NCI-H1651; first compound 0.2 µM,0.262
same,relative viability,NCI-H1793; first compound 0.002 µM,0.806
same,relative viability,NCI-H1793; first compound 0.006325 µM,0.536
same,relative viability,NCI-H1793; first compound 0.02 µM,0.319
same,relative viability,NCI-H1793; first compound 0.06325 µM,0.212
same,relative viability,NCI-H1793; first compound 0.2 µM,0.165
same,relative viability,NCI-H1915; first compound 0.002 µM,1.09
same,relative viability,NCI-H1915; first compound 0.006325 µM,0.987
same,relative viability,NCI-H1915; first compound 0.02 µM,0.862
same,relative viability,NCI-H1915; first compound 0.06325 µM,1.08
same,relative viability,NCI-H1915; first compound 0.2 µM,1.04
same,relative viability,NCI-H1944; first compound 0.002 µM,0.861
same,relative viability,NCI-H1944; first compound 0.006325 µM,0.826
same,relative viability,NCI-H1944; first compound 0.02 µM,0.539
same,relative viability,NCI-H1944; first compound 0.06325 µM,0.755
same,relative viability,NCI-H1944; first compound 0.2 µM,0.781
same,relative viability,NCI-H2126; first compound 0.002 µM,0.739
same,relative viability,NCI-H2126; first compound 0.006325 µM,0.727
same,relative viability,NCI-H2126; first compound 0.02 µM,0.538
same,relative viability,NCI-H2126; first compound 0.06325 µM,0.748
same,relative viability,NCI-H2126; first compound 0.2 µM,0.838
same,relative viability,NCI-H2347; first compound 0.002 µM,1.14
same,relative viability,NCI-H2347; first compound 0.02 µM,0.779
same,relative viability,NCI-H2347; first compound 0.06325 µM,0.936
same,relative viability,NCI-H2347; first compound 0.2 µM,0.382
same,relative viability,NCI-H3122; first compound 0.002 µM,0.756
same,relative viability,NCI-H3122; first compound 0.006325 µM,0.672
same,relative viability,NCI-H3122; first compound 0.02 µM,0.648
same,relative viability,NCI-H3122; first compound 0.06325 µM,0.179
same,relative viability,NCI-H3122; first compound 0.2 µM,0.149
same,relative viability,NCI-H322M; first compound 0.002 µM,0.774
same,relative viability,NCI-H322M; first compound 0.006325 µM,0.711
same,relative viability,NCI-H322M; first compound 0.02 µM,0.588
same,relative viability,NCI-H322M; first compound 0.06325 µM,0.751
same,relative viability,NCI-H322M; first compound 0.2 µM,0.807
same,relative viability,NCI-H441; first compound 0.002 µM,0.619
same,relative viability,NCI-H441; first compound 0.006325 µM,0.825
same,relative viability,NCI-H441; first compound 0.02 µM,0.739
same,relative viability,NCI-H441; first compound 0.06325 µM,0.126
same,relative viability,NCI-H441; first compound 0.2 µM,0.148
same,relative viability,NCI-H650; first compound 0.002 µM,1.24
same,relative viability,NCI-H650; first compound 0.006325 µM,1.04
same,relative viability,NCI-H650; first compound 0.02 µM,0.994
same,relative viability,NCI-H650; first compound 0.06325 µM,0.193
same,relative viability,NCI-H650; first compound 0.2 µM,0.145
same,relative viability,NCI-H838; first compound 0.002 µM,1.03
same,relative viability,NCI-H838; first compound 0.006325 µM,0.927
same,relative viability,NCI-H838; first compound 0.02 µM,0.589
same,relative viability,NCI-H838; first compound 0.06325 µM,0.168
same,relative viability,NCI-H838; first compound 0.2 µM,0.153
same,relative viability,SK-LU-1; first compound 0.002 µM,1.33
same,relative viability,SK-LU-1; first compound 0.006325 µM,0.7
same,relative viability,SK-LU-1; first compound 0.02 µM,0.305
same,relative viability,SK-LU-1; first compound 0.06325 µM,0.18
same,relative viability,SK-LU-1; first compound 0.2 µM,0.161
same,relative viability,SW 1573; first compound 0.002 µM,0.714
same,relative viability,SW 1573; first compound 0.006325 µM,0.728
same,relative viability,SW 1573; first compound 0.02 µM,0.501
same,relative viability,SW 1573; first compound 0.06325 µM,0.165
same,relative viability,SW 1573; first compound 0.2 µM,0.113
